Source: paper PMC12794188, “Maternal–Fetal Transfer and Toxicokinetics of 2,2′,5,5′-Tetrachlorobiphenyl, [^14C]-PCB52, Following Intratracheal Administration” (Chemical Research in Toxicology, 2025)

Experiment: Toxicokinetics and tissue disposition of total [14C] radioactivity after a single intratracheal dose of [14C]-PCB52 (0.157 mg/kg) in pregnant rats at GD 11±1
Type: in vivo, Sprague–Dawley rats
Procedure: Female Sprague–Dawley rats (8 weeks old) weighing 237–269.7 g (mean = 247.5 g) (Envigo RMS, LLC, Indianapolis, IN) were used for this study. All animal experiments were performed following the protocols evaluated and approved by the University of Iowa Institutional Animal Care and Use Committee (approval number 3091097). After arrival, the animals were acclimated for 7 days. The animals were housed in a light and temperature-controlled environment with ad libitum access to food and water during quarantine and throughout the study. Timed pregnancy was achieved by harem mating. , Briefly, one male and two female rats were placed together in the evening and checked for vaginal plug the following day. If vaginal plug was present, the male was removed from the breeding cage, and the gestation day 0 (GD 0), 0-day post coitum was assigned. Pregnancies were confirmed by ultrasound scan at GD 9. The dams were exposed at GD 11 (±1 day) to capture the period of early organogenesis and hormonal function, which falls within week 3 of human embryonic development. ,− On the day of the experiment, pregnant rats were intratracheally administered an average of 40 μg (range, 35–45 μg) of [^14C]-PCB52 in 100 μL of exposure solution. Although the dose used in this study exceeded the tolerable daily intake (TDI) of PCBs for healthy individuals, which is 1.6 μg per day for an individual weighing 80 kg, the use of higher acute doses has been established in toxicological studies intended for risk assessment. The intratracheal instillation method was chosen for administering [^14C]-PCB52 to represent inhalation exposures, capture exhaled concentration, and efficiently utilize the limited availability of the cost-intensive radiolabeled PCB52. , Although inhalation exposure would better represent real-world exposures to airborne LC-PCBs, it would not allow us to accurately measure the amount of PCB52 exhaled into the air after exposure and is experimentally infeasible. […] All intratracheal instillations were done under light anesthesia, achieved using a 4% isoflurane concentration via a Fortec vaporizer (Cyprane, Keighley, UK). The animals recovered from anesthesia within 1 min. Subsequently, the animals were housed within a cylindrical glass chamber measuring 2 L in volume, equipped with glass drainage mechanisms to facilitate urine collection and a metallic screen to segregate urine from feces (as in Figure S1). Air was drawn from the chamber at 6.0 L/min through a cartridge containing the XAD-2 polymeric resin to capture any exhaled [^14C]-PCB52. For periods longer than 24 h postexposure, exposed dams were placed in a metabolic cage, which was fitted with a cartridge containing XAD-2 to capture exhaled [^14C]-PCB52 as in other end points.
Maternal blood, urine, and feces samples were collected immediately before and at 0.21, 1.67, 12, 24, 48, and 96 h after lung dosing. The exposed dams were euthanized using 4% isoflurane, followed by cervical dislocation and exsanguination via a cardiac puncture. Euthanasia was consistently performed during the light cycle. Dams’ fur was wiped and analyzed for radioactivity. Using the retro-orbital blood collection method, 0.5–1.5 mL ([…] of an exposed pregnant rat’s body weight) of blood sample was collected from each of the dams until the individual dams were necropsied for whole-body tissue harvesting. At the end of the exposure period, the chamber’s interior walls were rinsed separately with water and acetone/hexane (25 – 45 mL) and wiped to measure residues. From the collected whole blood samples, 100 μL were aliquoted into three vials each, and the remaining blood was allowed to clot at room temperature before being centrifuged to yield serum. The placentas, developing fetuses, and whole-body tissue samples were harvested immediately before exposure and at 0.21, 1.67, 12, 24, and 96 h postexposure. […]

[1] = AF (amniotic fluid)/MS (maternal serum)
[2] = Adipose tissue, 0.21 h post-exposure
[3] = Adipose tissue, 1.67 h post-exposure
[4] = Adipose tissue, 12 h post-exposure
[5] = Brown adipose, 0.21 h post-exposure
[6] = Brown adipose, 1.67 h post-exposure
[7] = Brown adipose, 12 h post-exposure
[8] = Brown adipose, 24 h post-exposure
[9] = Brown adipose, 96 h post-exposure
[10] = Esophagus, 0.21 h post-exposure
[11] = Esophagus, 1.67 h post-exposure

SMILES: Clc1ccc(Cl)c(-c2cc(Cl)ccc2Cl)c1 [PCB52, 2,2′,5,5′-Tetrachlorobiphenyl]
- AUC0‑∞ ratio [1]: 0.050
- AUC0–96h ratio [1]: 0.053
- C max ratio [1]: 0.043
- AUC0–96h ratio (AF (amniotic fluid)/brain): 0.079
- C max ratio (AF (amniotic fluid)/brain): 0.071
- AUC_%Extrap (Adipose tissue): 42.32%
- Terminal elimination half-life (t1/2) (Adipose tissue): 72.85 h
- Conc. per mg wet tissue [2]: 8.78 dpm/mg
- Percent tissue distribution [2]: 10.92%
- Conc. per mg wet tissue [3]: 19.77 dpm/mg
- Percent tissue distribution [3]: 33.81%
- Conc. per mg wet tissue [4]: 27.29 dpm/mg
- Percent tissue distribution [4]: 26.32%
- Percent tissue distribution (Adipose tissue, 24 h post-exposure): 28.25%
- AUC_%Extrap (Adrenal gland): 74.40%
- Terminal elimination half-life (t1/2) (Adrenal gland): 253.59 h
- AUC_%Extrap (Bladder): 40.50%
- Terminal elimination half-life (t1/2) (Bladder): 57.81 h
- Conc. per mg wet tissue (Brain, 0.21 h post-exposure): 1.44 dpm/mg
- Percent tissue distribution (Brain, 0.21 h post-exposure): 0.79%
- Conc. per mg wet tissue (Brain, 1.67 h post-exposure): 4.90 dpm/mg
- Percent tissue distribution (Brain, 1.67 h post-exposure): 0.52%
- Conc. per mg wet tissue (Brain, 12 h post-exposure): 0.67 dpm/mg
- Percent tissue distribution (Brain, 12 h post-exposure): 0.08%
- Conc. per mg wet tissue (Brain, 24 h post-exposure): 0.64 dpm/mg
- Percent tissue distribution (Brain, 24 h post-exposure): 0.07%
- Conc. per mg wet tissue (Brain, 96 h post-exposure): 0.67 dpm/mg
- Percent tissue distribution (Brain, 96 h post-exposure): 0.10%
- Conc. per mg wet tissue (Bronchi, 0.21 h post-exposure): 81.91 dpm/mg
- Percent tissue distribution (Bronchi, 0.21 h post-exposure): 0.66%
- Conc. per mg wet tissue (Bronchi, 1.67 h post-exposure): 33.51 dpm/mg
- Percent tissue distribution (Bronchi, 1.67 h post-exposure): 0.20%
- Conc. per mg wet tissue (Bronchi, 12 h post-exposure): 20.05 dpm/mg
- Percent tissue distribution (Bronchi, 12 h post-exposure): 0.10%
- Conc. per mg wet tissue (Bronchi, 24 h post-exposure): 18.87 dpm/mg
- Percent tissue distribution (Bronchi, 24 h post-exposure): 0.08%
- Conc. per mg wet tissue (Bronchi, 96 h post-exposure): 1.44 dpm/mg
- Percent tissue distribution (Bronchi, 96 h post-exposure): 0.01%
- Conc. per mg wet tissue [5]: 40.87 dpm/mg
- Percent tissue distribution [5]: 0.21%
- Conc. per mg wet tissue [6]: 120.53 dpm/mg
- Percent tissue distribution [6]: 0.87%
- Conc. per mg wet tissue [7]: 27.78 dpm/mg
- Percent tissue distribution [7]: 0.00%
- Conc. per mg wet tissue [8]: 23.09 dpm/mg
- Percent tissue distribution [8]: 0.18%
- Conc. per mg wet tissue [9]: 4.17 dpm/mg
- Percent tissue distribution [9]: 0.00%
- AUC_%Extrap (Colon tissue): 22.17%
- Terminal elimination half-life (t1/2) (Colon tissue): 40.46 h
- Conc. per mg wet tissue (Colon, 0.21 h post-exposure): 9.24 dpm/mg
- Percent tissue distribution (Colon, 0.21 h post-exposure): 0.35%
- Conc. per mg wet tissue (Colon, 1.67 h post-exposure): 5.24 dpm/mg
- Percent tissue distribution (Colon, 1.67 h post-exposure): 0.28%
- Conc. per mg wet tissue (Colon, 12 h post-exposure): 5.56 dpm/mg
- Percent tissue distribution (Colon, 12 h post-exposure): 0.41%
- Conc. per mg wet tissue (Colon, 24 h post-exposure): 9.18 dpm/mg
- Percent tissue distribution (Colon, 24 h post-exposure): 0.51%
- Conc. per mg wet tissue (Colon, 96 h post-exposure): 1.87 dpm/mg
- Percent tissue distribution (Colon, 96 h post-exposure): 0.16%
- AUC_%Extrap (Duodenum): 14.10%
- Terminal elimination half-life (t1/2) (Duodenum): 34.84 h
- Tmax (Duodenum): ≤ 0.21 h
- Conc. per mg wet tissue (Duodenum, 0.21 h post-exposure): 21.37 dpm/mg
- Percent tissue distribution (Duodenum, 0.21 h post-exposure): 0.71%
- Conc. per mg wet tissue (Duodenum, 1.67 h post-exposure): 8.50 dpm/mg
- Percent tissue distribution (Duodenum, 1.67 h post-exposure): 0.25%
- Conc. per mg wet tissue (Duodenum, 12 h post-exposure): 3.28 dpm/mg
- Percent tissue distribution (Duodenum, 12 h post-exposure): 0.12%
- Conc. per mg wet tissue (Duodenum, 24 h post-exposure): 4.69 dpm/mg
- Percent tissue distribution (Duodenum, 24 h post-exposure): 0.17%
- Conc. per mg wet tissue (Duodenum, 96 h post-exposure): 0.83 dpm/mg
- Percent tissue distribution (Duodenum, 96 h post-exposure): 0.05%
- AUC_%Extrap (Esophagus): 11.71%
- Terminal elimination half-life (t1/2) (Esophagus): 46.31 h
- Conc. per mg wet tissue [10]: 72.35 dpm/mg
- Percent tissue distribution [10]: 0.51%
- Conc. per mg wet tissue [11]: 5.67 dpm/mg
- Percent tissue distribution [11]: 0.06%
- Conc. per mg wet tissue (Esophagus, 12 h post-exposure): 1.09 dpm/mg
- Percent tissue distribution (Esophagus, 12 h post-exposure): 0.01%
- Conc. per mg wet tissue (Esophagus, 24 h post-exposure): 0.76 dpm/mg
- Percent tissue distribution (Esophagus, 24 h post-exposure): 0.01%
